The values that follow come from PubChem BioAssay (NCI).

Test systems include A498 renal; HOP-62 NSCLC; MALME-3M melanoma; MDA-MB-231 breast; MDA-MB-435; SF-268 CNS; SK-MEL-28 melanoma; UO-31 renal.
Common to all, as to assay: growth of human tumour cells (NCI), 48 h

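Compound exposure: 48 hours, 5 concentrations, 96-well plates. GI50: concentration for 50% inhibition of growth. Definition used: TGI = concentration required for complete inhibition of growth.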

Turning to `NCCOCCOCCNc1nc(-c2ccccc2)nc(N2CCN(c3ccccn3)CC2)n1`, the GI50 with A498 renal is 3.91 µM; with HOP-62 NSCLC it was 16.7 µM; in the assay with MALME-3M melanoma, 11.3 µM; in the assay on MDA-MB-231 breast, 14.5 µM; in the assay with MDA-MB-435 it was 11.4 µM; with SF-268 CNS, 15.9 µM. Further, the GI50 in the assay on SK-MEL-28 melanoma is 3.9 µM; in the assay with UO-31 renal, 12.7 µM. Further, the TGI with A498 renal was 18.4 µM; in the assay on HOP-62 NSCLC, 31 µM; in the assay with MALME-3M melanoma, 26.2 µM; in the assay with MDA-MB-231 breast, 28.8 µM; in the assay with MDA-MB-435 it was 24.5 µM; in the assay on SF-268 CNS, 30.8 µM. Further, the TGI in the assay on SK-MEL-28 melanoma stood at 13.8 µM; in the assay on UO-31 renal, 25.8 µM.

On to `C=C1CCC2C3(C)COC(c4ccccc4)OC3CCC2(C)C1/C=C/C1=CCOC1=O` (stereo not drawn), for which the GI50 in the assay on A498 renal was 17.9 µM; with HOP-62 NSCLC, 22.9 µM; in the assay with MALME-3M melanoma, 15.6 µM; with MDA-MB-231 breast it was 12.5 µM; in the assay with MDA-MB-435, 2.84 µM; in the assay with SF-268 CNS it was 5.22 µM. For the same compound, the GI50 is 9.15 µM with SK-MEL-28 melanoma and 4.88 µM in the assay on UO-31 renal. Moreover, the TGI in the assay on A498 renal stood at 46 µM; in the assay on HOP-62 NSCLC it was 46.7 µM; in the assay with MALME-3M melanoma, 32.6 µM; in the assay with MDA-MB-231 breast it was 43 µM; with MDA-MB-435 it was 13.8 µM; in the assay on SF-268 CNS, 22.5 µM. For the same compound, the values for the TGI in the assay on SK-MEL-28 melanoma and in the assay with UO-31 renal were 26.6 µM and 18.2 µM, respectively.

For the compound `C#CCSc1cc(Cl)c(C)cc1S(=O)(=O)Nc1nc2ccccc2o1`, the GI50 was 33.4 µM with A498 renal; 29 µM in the assay with HOP-62 NSCLC; 28.1 µM with MALME-3M melanoma; 46.8 µM in the assay on MDA-MB-231 breast; 27.8 µM with MDA-MB-435; 59.8 µM in the assay on SF-268 CNS. Further, the GI50 in the assay with SK-MEL-28 melanoma was 54.7 µM; with UO-31 renal it was 23.8 µM. For the same compound, the TGI in the assay with A498 renal was 87.1 µM; in the assay with HOP-62 NSCLC, 65.6 µM; with MALME-3M melanoma, 73.5 µM; in the assay with MDA-MB-231 breast, greater than 100 µM; with MDA-MB-435, 62.9 µM; in the assay on SF-268 CNS, greater than 100 µM. For the same compound, the TGI in the assay on SK-MEL-28 melanoma was greater than 100 µM; in the assay with UO-31 renal, 52.8 µM.

As for `CCN(CC)CCCNCc1cc(-c2ccccc2)nc2ccccc12`, the GI50 was 12.3 µM in the assay with A498 renal; 8.27 µM in the assay on HOP-62 NSCLC; 7.2 µM in the assay on MALME-3M melanoma; 3.99 µM with MDA-MB-231 breast; 4.47 µM in the assay with MDA-MB-435; 4.72 µM in the assay on SF-268 CNS. Besides, the GI50 in the assay on SK-MEL-28 melanoma is 10.2 µM; in the assay with UO-31 renal, 3.96 µM. Also, the TGI with A498 renal was 41.3 µM; with HOP-62 NSCLC, greater than 100 µM; with MALME-3M melanoma it was 24.3 µM; with MDA-MB-231 breast, 24 µM; in the assay with MDA-MB-435, 24.3 µM; in the assay with SF-268 CNS, greater than 100 µM. Further, the TGI was found to be 22.4 µM in the assay on SK-MEL-28 melanoma and 50.5 µM in the assay on UO-31 renal.

With `Oc1ccc(-c2nc3ccccc3s2)cc1CN(Cc1ccccn1)Cc1ccccn1`, the GI50 in the assay with A498 renal was 2.66 µM; in the assay on HOP-62 NSCLC, 0.34 µM; in the assay on MALME-3M melanoma, 1.8 µM; in the assay on MDA-MB-231 breast, 1.3 µM; in the assay with MDA-MB-435, 2.24 µM; in the assay on SF-268 CNS, 1 µM. The GI50 with SK-MEL-28 melanoma was 2.35 µM; with UO-31 renal it was 0.0834 µM. Also, the TGI came to 18.6 µM in the assay with A498 renal; 32.1 µM in the assay on HOP-62 NSCLC; 7.77 µM with MALME-3M melanoma; 13.7 µM with MDA-MB-231 breast; 11.3 µM with MDA-MB-435; 16 µM in the assay on SF-268 CNS. Also, the TGI turned out to be 15.3 µM in the assay on SK-MEL-28 melanoma and 2.49 µM in the assay on UO-31 renal.

For the compound `C[As](C)SCC(COC(=O)C(Cl)c1ccccc1)OC(=O)C(Cl)c1ccccc1` (stereo not drawn), the GI50 is 4.34 µM in the assay with A498 renal; 6.66 µM in the assay with HOP-62 NSCLC; 0.139 µM in the assay with MALME-3M melanoma; 1.53 µM in the assay with MDA-MB-231 breast; 0.367 µM with MDA-MB-435; 3.3 µM with SF-268 CNS. The GI50 with SK-MEL-28 melanoma is 10.6 µM; with UO-31 renal, 1.55 µM. The TGI in the assay on A498 renal was 17.2 µM; in the assay with HOP-62 NSCLC, 21.6 µM; with MALME-3M melanoma, 1.44 µM; with MDA-MB-231 breast, 4.95 µM; in the assay on MDA-MB-435, 3.13 µM; in the assay with SF-268 CNS, 14.9 µM. Moreover, the values for the TGI with SK-MEL-28 melanoma and in the assay on UO-31 renal were 28.1 µM and greater than 44.4 µM, respectively.

For `CCOC(=O)C1c2[nH]c3ccccc3c2CCN1C(=O)c1ccc(OC)o1` (stereo not drawn), the TGI in the assay with A498 renal was greater than 10 µM; with HOP-62 NSCLC, greater than 10 µM; in the assay on MALME-3M melanoma it was 2.78 µM; in the assay with MDA-MB-231 breast it was greater than 10 µM; in the assay on MDA-MB-435, greater than 10 µM; in the assay on SF-268 CNS it was greater than 10 µM. Besides, the TGI with SK-MEL-28 melanoma and in the assay with UO-31 renal was greater than 10 µM each time.

Turning to `C[C@@]12CCC[C@@](C)(C(=O)O)C1CC[C@]13C[C@@](O)(CO)[C@](O)(CCC12)C3` (stereo partly drawn), the GI50 in the assay with A498 renal, in the assay with HOP-62 NSCLC, with MALME-3M melanoma, with MDA-MB-231 breast, in the assay on MDA-MB-435 and with SF-268 CNS was greater than 100 µM in each case. The GI50 in the assay on SK-MEL-28 melanoma and with UO-31 renal was greater than 100 µM each time. For the same compound, the TGI in the assay on A498 renal, with HOP-62 NSCLC, with MALME-3M melanoma, in the assay on MDA-MB-231 breast, in the assay on MDA-MB-435 and in the assay on SF-268 CNS was greater than 100 µM in each case. For the same compound, the TGI in the assay with SK-MEL-28 melanoma and with UO-31 renal was greater than 100 µM each time.

As to `C/C1=C/C(=O)O[C@@H]2C[C@@H](CC[C@H](C)/C=C\C=C\CC1)O[C@@](O)([C@@H]1CSC(=O)N1)C2`, the TGI was 0.358 µM with A498 renal; 0.724 µM in the assay on HOP-62 NSCLC; greater than 10 µM in the assay with MALME-3M melanoma; greater than 2.65 µM with MDA-MB-231 breast; greater than 2.24 µM in the assay with MDA-MB-435; 1.38 µM in the assay on SF-268 CNS. Also, the TGI stood at 5.41 µM in the assay on SK-MEL-28 melanoma and 1.25 µM with UO-31 renal.

Consider `CC(C)=CCC[C@](C)(O)[C@H]1CC[C@]2(C)[C@@H]1CC[C@@H]1[C@@]3(C)CC/C(=N/O)C(C)(C)[C@@H]3CC[C@]12C`, for which the GI50 in the assay with A498 renal was 51.2 µM; in the assay with HOP-62 NSCLC it was 11.1 µM; in the assay on MALME-3M melanoma, 8.25 µM; with MDA-MB-231 breast, 9.95 µM; with MDA-MB-435, 21.4 µM; with SF-268 CNS, 21.5 µM. In addition, the GI50 in the assay on SK-MEL-28 melanoma was 26.5 µM; in the assay on UO-31 renal, 16.9 µM. In addition, the TGI with A498 renal was greater than 100 µM; with HOP-62 NSCLC it was 40.9 µM; in the assay on MALME-3M melanoma, 32.6 µM; in the assay with MDA-MB-231 breast, 37.4 µM; in the assay with MDA-MB-435, greater than 100 µM; in the assay on SF-268 CNS, greater than 100 µM. The TGI in the assay on SK-MEL-28 melanoma and with UO-31 renal was greater than 100 µM in each case.

With `O=Nc1ccc(NO)c2ccccc12`, the GI50 in the assay with A498 renal is 18.9 µM; with HOP-62 NSCLC, 14.6 µM; in the assay on MALME-3M melanoma, 5.85 µM; in the assay with MDA-MB-231 breast, 10.3 µM; in the assay on MDA-MB-435 it was 1.94 µM; with SF-268 CNS, 13.8 µM. The GI50 was 15.1 µM in the assay with SK-MEL-28 melanoma and 13.2 µM in the assay on UO-31 renal. Also, the TGI in the assay on A498 renal was 36 µM; in the assay with HOP-62 NSCLC it was 27.9 µM; in the assay with MALME-3M melanoma it was 19 µM; with MDA-MB-231 breast, 47.5 µM; with MDA-MB-435 it was 3.57 µM; in the assay on SF-268 CNS it was 27.8 µM. Also, the TGI in the assay on SK-MEL-28 melanoma was determined as 28.6 µM; in the assay on UO-31 renal, 26.4 µM.

Turning to `O=C(c1ccccc1)C1OC1c1ccc([N+](=O)[O-])cc1` (stereo not drawn), the GI50 in the assay on A498 renal is 18.8 µM; with HOP-62 NSCLC, 4.76 µM; in the assay with MALME-3M melanoma, 6.22 µM; with MDA-MB-231 breast, 11 µM; in the assay with MDA-MB-435, 2.95 µM; with SF-268 CNS, 8.73 µM. The GI50 in the assay on SK-MEL-28 melanoma is 24.8 µM; in the assay on UO-31 renal it was 5.94 µM. Besides, the TGI in the assay on A498 renal was 53.1 µM; in the assay on HOP-62 NSCLC it was 65.9 µM; in the assay on MALME-3M melanoma, greater than 100 µM; with MDA-MB-231 breast, 33.1 µM; in the assay with MDA-MB-435 it was greater than 100 µM; in the assay on SF-268 CNS it was greater than 100 µM. The TGI was greater than 100 µM in the assay with SK-MEL-28 melanoma and 93.2 µM with UO-31 renal.

Regarding `CCN(CC)c1ccc(C(O)C2=CC(=O)c3ccccc3C2=O)cc1` (stereo not drawn), the GI50 was 2.36 µM in the assay with A498 renal; 2.03 µM in the assay with HOP-62 NSCLC; 1.59 µM in the assay on MALME-3M melanoma; 1.53 µM in the assay on MDA-MB-231 breast; 1.58 µM in the assay on MDA-MB-435; greater than 100 µM with SF-268 CNS. The GI50 in the assay with SK-MEL-28 melanoma was 1.21 µM; in the assay with UO-31 renal, 2.12 µM. The TGI in the assay on A498 renal is 8.35 µM; in the assay with HOP-62 NSCLC, 4.33 µM; in the assay with MALME-3M melanoma it was 3.13 µM; in the assay on MDA-MB-231 breast, 4.61 µM; with MDA-MB-435 it was 2.99 µM; in the assay with SF-268 CNS, greater than 100 µM. For the same compound, the TGI with SK-MEL-28 melanoma worked out at 2.6 µM; with UO-31 renal it was 6.25 µM.

`CS(=O)(=O)CCc1cccc(C(=O)c2cnn(-c3ccc(F)cc3)c2N)c1`: the GI50 in the assay with A498 renal, in the assay with HOP-62 NSCLC, with MALME-3M melanoma, in the assay on MDA-MB-231 breast, with MDA-MB-435 and in the assay on SF-268 CNS was greater than 25 µM in each case. The GI50 with SK-MEL-28 melanoma and with UO-31 renal was greater than 25 µM throughout. In addition, the TGI in the assay with A498 renal, in the assay with HOP-62 NSCLC, in the assay on MALME-3M melanoma, with MDA-MB-231 breast, in the assay on MDA-MB-435 and in the assay on SF-268 CNS was greater than 25 µM each time. Besides, the TGI in the assay with SK-MEL-28 melanoma and in the assay on UO-31 renal was greater than 25 µM in each case.
